The text below walks through data of US11697646B2, “Triazole N-linked carbamoyl cyclohexyl acids as LPA antagonists” (BRISTOL-MYERS SQUIBB COMPANY, priority 2017, dated 2023).

One test deals with IPF patients. Conditions: 26-week clinical trial in IPF patients; cited from earlier work.
The target of another test is T1, human LPA1 (Homo sapiens, UniProt Q92633).
T1 construct: expressed in transfected cells; host or cells: Chinese hamster ovary (CHO) cells
The test is described as follows: LPA1 functional antagonist assay (calcium flux). Type of test: cell-based. Conditions: CHO cells overexpressing human LPA1; calcium flux induced by 10 nM LPA; read-out: hLPA1 IC50. As for the experimental part:
The effectiveness of compounds of the present invention as LPA1 inhibitors can be determined in an LPA1 functional antagonist assay as follows:
The cells were then equilibrated to room temperature for 30 minutes before the assay. […] IC50 values were determined by fitting data to a 4-parameter logistic equation (GraphPad Prism, San Diego Calif.).

For the next test, the system named is plasma histamine. The test is described as follows: LPA challenge with plasma histamine evaluation (acute in vivo histamine assay). The note with it: 1 mg/kg dose. As for the experimental part:
LPA Challenge with Plasma Histamine Evaluation.
Compound is dosed orally p.o. 2 hours to CD-1 female mice prior to the LPA challenge. The mice are then dosed via tail vein (IV) with 0.15 mL of LPA in 0.1% BSA/PBS (2 μg/μL). Exactly 2 minutes following the LPA challenge, the mice are euthanized by decapitation and the trunk blood is collected. These samples are collectively centrifuged and individual 75 μL samples are frozen at −20° C. until the time of the histamine assay.
The plasma histamine analysis was run by standard EIA (Enzyme Immunoassay) methods. Plasma samples were thawed and diluted 1:30 in 0.1% BSA in PBS. The EIA protocol for histamine analysis as outlined by the manufacturer was followed (Histamine EIA, Oxford Biomedical Research, EA #31).
The LPA used in the assay is formulated as follows: LPA (1-oleoyl-2-hydroxy-sn-glycero-3-phosphate (sodium salt), 857130P, Avanti Polar Lipids) is prepared in 0.1% BSA/PBS for total concentration of 2 μg/μL, 13 mg of LPA is weighed and 6.5 mL 0.1% BSA added, vortexed and sonicated for −1 hour until a clear solution is achieved.

The next test deals with nerve-injured mice. The note with it: pretreatment; cited from earlier work.
In test [1] the test system is human foetal lung fibroblasts. Conditions: induced by BAL obtained from IPF patients; cited from earlier work.
For a further test, the system named is UUO mice. Conditions: cited from earlier work.
Test [2] concerns mouse epithelial renal cell line, MCT. Conditions: LPA treatment of MCT cells, co-treatment; cited from earlier work.
Test [3] has as its system pancreatic cancer cell lines. Conditions: in response to LPA and peritoneal fluid (ascites) from pancreatic cancer patients; cited from earlier work.
Test [4] relates to highly peritoneal metastatic pancreatic cancer cell line. Conditions: LPA-induced and ascites-induced; cited from earlier work.

T1 sequence (Q92633 whole entry): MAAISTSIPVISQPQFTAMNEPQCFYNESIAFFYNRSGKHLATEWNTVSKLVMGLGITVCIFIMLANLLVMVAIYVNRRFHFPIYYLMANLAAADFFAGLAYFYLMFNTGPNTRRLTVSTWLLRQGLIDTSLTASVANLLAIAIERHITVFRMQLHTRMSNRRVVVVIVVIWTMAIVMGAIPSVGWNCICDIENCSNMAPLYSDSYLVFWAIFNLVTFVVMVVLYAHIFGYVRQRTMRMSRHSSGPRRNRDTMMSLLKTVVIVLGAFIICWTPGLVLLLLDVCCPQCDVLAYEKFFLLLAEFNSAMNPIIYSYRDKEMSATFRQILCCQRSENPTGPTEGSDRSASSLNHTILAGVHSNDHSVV

In the case of `Cc1noc(-c2ccc(-c3ccc(C4(C(=O)O)CC4)cc3)cc2)c1NC(=O)O[C@H](C)c1ccccc1` [BMS-986020], the “rate of FVC (forced vital capacity) decline” value in the test with IPF patients is reported as “significantly reduce”.
In general, IC50 refers to the concentration needed to halve the response being measured. On to `Cc1nc(-c2nnn(C)c2CNC(=O)OCc2ccccc2)ccc1O[C@H]1CCC[C@H](C(=O)O)C1` [Example 34, (1S,3S)-3-((6-(5-((((benzyloxy)carbonyl)amino)methyl)-1-methyl-1H-1,2,3-triazol-4-yl)-2-methylpyridin-3-yl)oxy)cyclohexane-1-carboxylic acid], for which, at human LPA1, the IC50 came to 9 nM. Besides, the “acute in vivo histamine assay in CD-1 mice: % histamine” value in the test with plasma histamine is −96%.
As to `Cc1nc(-c2nnn(C)c2CNC(=O)CC2CCCC2)ccc1O[C@H]1CCC[C@H](C(=O)O)C1` [Example 235, (1S,3S)-3-((6-(5-((2-cyclopentylacetamido)methyl)-1-methyl-1H-1,2,3-triazol-4-yl)-2-methylpyridin-3-yl)oxy)cyclohexanecarboxylic acid], the IC50 on human LPA1 stood at 105 nM.
Still for that read-out and setting: as for `Cn1nnc(-c2ccc(O[C@H]3CCC[C@H](C(=O)O)C3)cn2)c1CNC(=O)CC1CCCC1` [Example 236, (1S,3S)-3-((6-(5-((2-cyclopentylacetamido)methyl)-1-methyl-1H-1,2,3-triazol-4-yl)pyridin-3-yl)oxy)cyclohexanecarboxylic acid], the figure is 569 nM; as for `CCCCC(=O)NCc1c(-c2ccc(O[C@H]3CCC[C@H](C(=O)O)C3)c(C)n2)nnn1C` [Example 237, (1S,3S)-3-((2-methyl-6-(1-methyl-5-(pentanamidomethyl)-1H-1,2,3-triazol-4-yl)pyridin-3-yl)oxy)cyclo-hexanecarboxylic acid], 783 nM; as for `Cc1nc(-c2nnn(C)c2CCNC(=O)Cc2ccccc2)ccc1O[C@H]1CCC[C@H](C(=O)O)C1` [Example 238, (1S,3S)-3-((2-methyl-6-(1-methyl-5-(2-(2-phenylacetamido)ethyl)-1H-1,2,3-triazol-4-yl)pyridin-3-yl)oxy)cyclohexane-1-carboxylic acid], 138 nM.
Regarding `Cc1nc(-c2nnn(C)c2CCNC(=O)CCC(C)C)ccc1O[C@H]1CCC[C@H](C(=O)O)C1` [Example 240], the half-maximal inhibitory concentration (IC50) at human LPA1 came out at 1010 nM.
On to `C[C@@H](N)[C@H]1CC[C@H](C(=O)Nc2ccncc2)CC1` [Example Y-27632], for which the allodynia and hyperalgesia entry in the test on nerve-injured mice was “completely abolished”.
Take `Cc1noc(-c2ccc(CSCCC(=O)O)cc2)c1NC(=O)OC(C)c1ccccc1Cl` (centres unmarked) [Ki16425]: in test [1], the “chemotaxis of human foetal lung fibroblasts” value is “blocked”. The “development of renal fibrosis” value in the test on UUO mice was “closely resembled the profile of LPA1 (−/−) mice”. In addition, in [2], the “induction of CTGF expression” value is listed as “almost completely suppressed”. In addition, the in vitro migration entry in test [3] is recorded as “effectively blocked”. The invasion activity entry in [4] is recorded as “blocked”.
